Assay results from PubChem BioAssay AID2060627 (Molecular Pharmacology Branch, DTP, NCI, 2025).

Tested on: 156681-154-R-J1-PDC complex spheroid viability
Experiment: Anticancer human tumor 156681-154-R-J1-PDC patient-derived melanoma cell line growth inhibition [CLK]
Settings: for IC50: curve of first compound; for viability, T/C: stronger effect = lower value; active means viability on the fitted dose curve at most 10% of control; inactive means the rest
Summary of the method: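 Patient-derived tumor cells grown as complex spheroids with HUVEC endothelial cells and mesenchymal stem cells, treated with drug combinations. Concentrations descend in half-log steps from near clinical Cmax, or from 10 microM if Cmax unknown.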

[1] = second compound 0.0316 µM, first compound 0.0316 µM
[2] = second compound 0.0316 µM, first compound 0.1 µM
[3] = second compound 0.0316 µM, first compound 0.316 µM
[4] = second compound 0.0316 µM, first compound 1 µM
[5] = second compound 0.0316 µM, first compound 3.16 µM
[6] = second compound 0.0316 µM, first compound 10 µM
[7] = second compound 0.1 µM, first compound 0.0316 µM
[8] = second compound 0.1 µM, first compound 0.1 µM
[9] = second compound 0.1 µM, first compound 0.316 µM
[10] = second compound 0.1 µM, first compound 1 µM
[11] = second compound 0.1 µM, first compound 3.16 µM
[12] = second compound 0.1 µM, first compound 10 µM
[13] = second compound 0.316 µM, first compound 0.0316 µM
[14] = second compound 0.316 µM, first compound 0.1 µM
[15] = second compound 0.316 µM, first compound 0.316 µM
[16] = second compound 0.316 µM, first compound 1 µM
[17] = second compound 0.316 µM, first compound 3.16 µM
[18] = second compound 0.316 µM, first compound 10 µM
[19] = second compound 1 µM, first compound 0.0316 µM
[20] = second compound 1 µM, first compound 0.1 µM
[21] = second compound 1 µM, first compound 0.316 µM
[22] = second compound 1 µM, first compound 1 µM
[23] = second compound 1 µM, first compound 3.16 µM
[24] = second compound 1 µM, first compound 10 µM
[25] = second compound 3.16 µM, first compound 0.0316 µM
[26] = second compound 3.16 µM, first compound 0.1 µM
[27] = second compound 3.16 µM, first compound 0.316 µM
[28] = second compound 3.16 µM, first compound 1 µM
[29] = second compound 3.16 µM, first compound 3.16 µM
[30] = second compound 3.16 µM, first compound 10 µM
[31] = second compound 10 µM, first compound 0.0316 µM
[32] = second compound 10 µM, first compound 0.1 µM
[33] = second compound 10 µM, first compound 0.316 µM
[34] = second compound 10 µM, first compound 1 µM
[35] = second compound 10 µM, first compound 3.16 µM
[36] = second compound 10 µM, first compound 10 µM
[37] = second compound 0.0316 µM, first compound 0.00316 µM
[38] = second compound 0.0316 µM, first compound 0.01 µM
[39] = second compound 0.1 µM, first compound 0.00316 µM
[40] = second compound 0.1 µM, first compound 0.01 µM
[41] = second compound 0.316 µM, first compound 0.00316 µM
[42] = second compound 0.316 µM, first compound 0.01 µM
[43] = second compound 1 µM, first compound 0.00316 µM
[44] = second compound 1 µM, first compound 0.01 µM
[45] = second compound 3.16 µM, first compound 0.00316 µM
[46] = second compound 3.16 µM, first compound 0.01 µM
[47] = second compound 10 µM, first compound 0.00316 µM
[48] = second compound 10 µM, first compound 0.01 µM
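Further: spheroids exposed to the agents for seven days.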
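Wherever viability, T/C is given: 100% = DMSO vehicle control viability.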

CC(=O)O[C@H]1C(=O)[C@@]2(C)[C@H]([C@H](OC(=O)c3ccccc3)[C@]3(O)C[C@H](OC(=O)[C@H](O)[C@@H](NC(=O)c4ccccc4)c4ccccc4)C(C)=C1C3(C)C)[C@]1(OC(C)=O)CO[C@@H]1C[C@@H]2O + CNC(=O)c1ccc(Nc2nc(OC3CCCC3)c3c(-c4ccc5nc(C)oc5c4)c[nH]c3n2)c(OC)c1
inactive: viability, T/C [1] 16.8% | viability, T/C [2] 19% | viability, T/C [3] 13.9% | viability, T/C [4] 19.6% | viability, T/C [5] 30.7% | viability, T/C [6] 41.1% | viability, T/C [7] 36.3% | viability, T/C [8] 24.6% | viability, T/C [9] 38.9% | viability, T/C [10] 44.2% | viability, T/C [11] 61.3% | viability, T/C [12] 56.1% | viability, T/C [13] 78.4% | viability, T/C [14] 88.8% | viability, T/C [15] 55.4% | viability, T/C [16] 91.9% | viability, T/C [17] 102% | viability, T/C [18] 95.3% | viability, T/C [19] 58.5% | viability, T/C [20] 66.6% | viability, T/C [21] 65.5% | viability, T/C [22] 71.7% | viability, T/C [23] 85% | viability, T/C [24] 76.4% | viability, T/C [25] 63.2% | viability, T/C [26] 60.1% | viability, T/C [27] 56% | viability, T/C [28] 71.4% | viability, T/C [29] 78.6% | viability, T/C [30] 58.4% | viability, T/C [31] 51.6% | viability, T/C [32] 51.3% | viability, T/C [33] 55.2% | viability, T/C [34] 47.1% | viability, T/C [35] 57.5% | viability, T/C [36] 55.2%
> 10000 nM: IC50 (second compound 0.316 µM) | IC50 (second compound 1 µM) | IC50 (second compound 3.16 µM) | IC50 (second compound 10 µM)
< 31.6 nM: IC50 (second compound 0.0316 µM) | IC50 (second compound 0.1 µM)

CCc1c2c(nc3ccc(O)cc13)-c1cc3c(c(=O)n1C2)COC(=O)[C@]3(O)CC + CNC(=O)c1ccc(Nc2nc(OC3CCCC3)c3c(-c4ccc5nc(C)oc5c4)c[nH]c3n2)c(OC)c1
inactive: viability, T/C [37] 27.7% | viability, T/C [38] 15% | viability, T/C [1] 18% | viability, T/C [2] 19.4% | viability, T/C [3] 16.6% | viability, T/C [39] 24.1% | viability, T/C [40] 16.7% | viability, T/C [7] 14% | viability, T/C [8] 17.7% | viability, T/C [9] 14.9% | viability, T/C [41] 27.4% | viability, T/C [42] 14.2% | viability, T/C [13] 12.8% | viability, T/C [14] 16.4% | viability, T/C [15] 14.8% | viability, T/C [16] 5.29% | viability, T/C [43] 21.9% | viability, T/C [44] 11.3% | viability, T/C [19] 10.5% | viability, T/C [45] 20.9% | viability, T/C [46] 15.8% | viability, T/C [25] 10.4% | viability, T/C [26] 14.2% | viability, T/C [47] 18.9% | viability, T/C [48] 12% | viability, T/C [31] 11.1%
active: viability, T/C [4] 4.47% | viability, T/C [10] 5.02% | viability, T/C [20] 14.7% | viability, T/C [21] 9.49% | viability, T/C [22] 5.41% | viability, T/C [27] 13.1% | viability, T/C [28] 2.05% | viability, T/C [32] 12.5% | viability, T/C [33] 9.62% | viability, T/C [34] 1.61%
< 3.16 nM: IC50 (second compound 0.0316 µM) | IC50 (second compound 0.1 µM) | IC50 (second compound 0.316 µM) | IC50 (second compound 1 µM) | IC50 (second compound 3.16 µM) | IC50 (second compound 10 µM)

Cn1ncnc1[C@H]1c2n[nH]c(=O)c3cc(F)cc(c23)N[C@@H]1c1ccc(F)cc1 + CNC(=O)c1ccc(Nc2nc(OC3CCCC3)c3c(-c4ccc5nc(C)oc5c4)c[nH]c3n2)c(OC)c1
> 100 nM: IC50 (second compound 0.0316 µM) | IC50 (second compound 0.1 µM) | IC50 (second compound 0.316 µM)
0.316 nM: IC50 (second compound 1 µM)
inactive: viability, T/C (second compound 0.0316 µM, first compound 0.000316 µM) 91.5% | viability, T/C (second compound 0.0316 µM, first compound 0.001 µM) 87.8% | viability, T/C [37] 74.9% | viability, T/C [38] 84.6% | viability, T/C [1] 83.2% | viability, T/C [2] 64.1% | viability, T/C (second compound 0.1 µM, first compound 0.000316 µM) 56.9% | viability, T/C (second compound 0.1 µM, first compound 0.001 µM) 68.6% | viability, T/C [39] 75.9% | viability, T/C [40] 66.6% | viability, T/C [7] 62.3% | viability, T/C [8] 53.5% | viability, T/C (second compound 0.316 µM, first compound 0.000316 µM) 67% | viability, T/C (second compound 0.316 µM, first compound 0.001 µM) 68.4% | viability, T/C [41] 55.4% | viability, T/C [42] 58.4% | viability, T/C [13] 60% | viability, T/C [14] 51.9% | viability, T/C (second compound 1 µM, first compound 0.000316 µM) 51.8% | viability, T/C (second compound 1 µM, first compound 0.001 µM) 51.1% | viability, T/C [43] 39.8% | viability, T/C [44] 44.3% | viability, T/C [19] 53.6% | viability, T/C [20] 29.3% | viability, T/C (second compound 3.16 µM, first compound 0.000316 µM) 55.1% | viability, T/C (second compound 3.16 µM, first compound 0.001 µM) 41.5% | viability, T/C [45] 43.6% | viability, T/C [46] 49.5% | viability, T/C [25] 39.5% | viability, T/C [26] 33.1% | viability, T/C (second compound 10 µM, first compound 0.000316 µM) 49.3% | viability, T/C (second compound 10 µM, first compound 0.001 µM) 43.9% | viability, T/C [47] 33.6% | viability, T/C [48] 32.5% | viability, T/C [31] 38.6% | viability, T/C [32] 25.4%
< 0.316 nM: IC50 (second compound 3.16 µM) | IC50 (second compound 10 µM)

Nc1ccn(C2OC(CO)C(O)C2(F)F)c(=O)n1 (stereo not given) + CNC(=O)c1ccc(Nc2nc(OC3CCCC3)c3c(-c4ccc5nc(C)oc5c4)c[nH]c3n2)c(OC)c1
< 31.6 nM: IC50 (second compound 0.0316 µM) | IC50 (second compound 0.1 µM) | IC50 (second compound 0.316 µM) | IC50 (second compound 1 µM) | IC50 (second compound 3.16 µM) | IC50 (second compound 10 µM)
active: viability, T/C [27] 9.98% | viability, T/C [28] 7.12% | viability, T/C [29] 11.4% | viability, T/C [30] 7.7% | viability, T/C [34] 9.99% | viability, T/C [35] 12.1% | viability, T/C [36] 7.49%
inactive: viability, T/C [1] 12.3% | viability, T/C [2] 15.9% | viability, T/C [3] 13.6% | viability, T/C [4] 17.9% | viability, T/C [5] 15.6% | viability, T/C [6] 15.2% | viability, T/C [7] 13.2% | viability, T/C [8] 13.4% | viability, T/C [9] 14.2% | viability, T/C [10] 16.1% | viability, T/C [11] 15.7% | viability, T/C [12] 14% | viability, T/C [13] 15.7% | viability, T/C [14] 11.9% | viability, T/C [15] 19% | viability, T/C [16] 13% | viability, T/C [17] 12.2% | viability, T/C [18] 12.5% | viability, T/C [19] 20.5% | viability, T/C [20] 11.2% | viability, T/C [21] 7.8% | viability, T/C [22] 9.13% | viability, T/C [23] 12.3% | viability, T/C [24] 10.8% | viability, T/C [25] 25.3% | viability, T/C [26] 12.3% | viability, T/C [31] 28.5% | viability, T/C [32] 12.4% | viability, T/C [33] 9.66%

O=c1[nH]cc(F)c(=O)[nH]1 + CNC(=O)c1ccc(Nc2nc(OC3CCCC3)c3c(-c4ccc5nc(C)oc5c4)c[nH]c3n2)c(OC)c1
7950 nM: IC50 (second compound 0.0316 µM)
4120 nM: IC50 (second compound 1 µM)
< 31.6 nM: IC50 (second compound 3.16 µM) | IC50 (second compound 10 µM)
5500 nM: IC50 (second compound 0.1 µM)
inactive: viability, T/C [1] 96.6% | viability, T/C [2] 99% | viability, T/C [3] 91.9% | viability, T/C [4] 95.9% | viability, T/C [5] 86.9% | viability, T/C [6] 40.8% | viability, T/C [7] 63.9% | viability, T/C [8] 79.2% | viability, T/C [9] 74.4% | viability, T/C [10] 74.3% | viability, T/C [11] 59.6% | viability, T/C [12] 39.7% | viability, T/C [13] 78.6% | viability, T/C [14] 75.2% | viability, T/C [15] 73.4% | viability, T/C [16] 60.7% | viability, T/C [17] 53.8% | viability, T/C [18] 30.6% | viability, T/C [19] 70.7% | viability, T/C [20] 46.3% | viability, T/C [21] 58.2% | viability, T/C [22] 52.7% | viability, T/C [23] 62.2% | viability, T/C [24] 23.6% | viability, T/C [25] 49.7% | viability, T/C [26] 42.3% | viability, T/C [27] 47.9% | viability, T/C [28] 43.8% | viability, T/C [29] 35% | viability, T/C [30] 19.8% | viability, T/C [31] 51% | viability, T/C [32] 40.5% | viability, T/C [33] 41.2% | viability, T/C [34] 45.4% | viability, T/C [35] 41.2% | viability, T/C [36] 20.1%
3420 nM: IC50 (second compound 0.316 µM)
